Assay results from patent US11566007B2, “Ras inhibitors” (Revolution Medicines, Inc., priority 2019, dated 2023).
Like-named read-outs stand apart in the source and are kept apart here.

Experiments:
NCI-H358 (K-Ras G12C) = experiment: CellTiter-Glo cell viability assay, NCI-H358; assay type: cell-based, human; details: NCI-H358, 5-day treatment, class symbols, read-out: Additional H358 Cell Viability assay data (K-Ras G12C, IC50)
Outline: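 Steps: compound dispensed into wells holding cells; incubation to day 5; ~30 min room-temperature equilibration; luminescence read; sample signal divided by mean DMSO signal, times 100; four-parameter logistic curve fit.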

K-Ras G12C = K-Ras G12C (Homo sapiens (Human), UniProt P01116+P62937, G12C); experiment: Ras-Raf (BRAF RBD) disruption / FRET / MOA assay, KRAS G12C; assay type: biochemical; details: KRAS G12C; Ras-Raf disruption/FRET/MOA assay; read-out: IC50* KRAS G12C FRET data
Chain of K-Ras G12C (P01116-2 other isoform, or with tags, fused parts or gaps G12C): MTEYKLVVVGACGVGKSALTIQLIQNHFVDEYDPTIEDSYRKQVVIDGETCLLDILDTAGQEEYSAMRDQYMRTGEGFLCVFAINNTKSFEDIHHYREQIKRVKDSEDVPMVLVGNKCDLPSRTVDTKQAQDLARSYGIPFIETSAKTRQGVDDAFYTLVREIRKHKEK
Chain of K-Ras G12C (P62937 whole entry): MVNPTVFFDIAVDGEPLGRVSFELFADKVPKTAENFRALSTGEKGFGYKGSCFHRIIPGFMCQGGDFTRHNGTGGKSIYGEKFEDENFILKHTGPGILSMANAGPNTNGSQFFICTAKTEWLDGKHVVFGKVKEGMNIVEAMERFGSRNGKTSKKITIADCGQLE
Outline: (§1)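 A 10-point, 3-fold dilution series topping at 30 μM final was incubated 3 h at 25° C with the Ras/cyclophilin A/BRAF RBD mixture.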

K-Ras G13C = K-Ras G13C (Homo sapiens (Human), UniProt P01116+P62937, G13C); experiment: Ras-Raf (BRAF RBD) disruption / FRET / MOA assay, KRAS G13C; assay type: biochemical; details: KRAS G13C; Ras-Raf disruption/FRET/MOA assay; read-out: IC50* KRAS G13C FRET data
Chain of K-Ras G13C (P01116-2 other isoform, or with tags, fused parts or gaps G13C): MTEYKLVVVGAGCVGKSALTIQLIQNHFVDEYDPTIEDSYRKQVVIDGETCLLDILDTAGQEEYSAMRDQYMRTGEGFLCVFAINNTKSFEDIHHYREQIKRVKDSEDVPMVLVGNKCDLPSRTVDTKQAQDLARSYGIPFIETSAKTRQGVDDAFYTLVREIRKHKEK
Chain of K-Ras G13C (P62937 whole entry): as the sequence (P62937 whole entry) above
Outline: as §1

KRAS G12S = KRAS G12S (Homo sapiens (Human), UniProt P01116+P62937, G12S); experiment: Ras-Raf (BRAF RBD) disruption / FRET / MOA assay, KRAS G12S; assay type: biochemical; details: Ras-Raf disruption/FRET/MOA assay; class symbols; read-out: KRAS G12S FRET data IC50
Chain of KRAS G12S (P01116-2 other isoform, or with tags, fused parts or gaps G12S): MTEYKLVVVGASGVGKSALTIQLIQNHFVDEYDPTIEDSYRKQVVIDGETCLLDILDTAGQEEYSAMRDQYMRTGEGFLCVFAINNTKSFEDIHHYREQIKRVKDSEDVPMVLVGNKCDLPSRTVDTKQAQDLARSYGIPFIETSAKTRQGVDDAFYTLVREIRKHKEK
Chain of KRAS G12S (P62937 whole entry): as the sequence (P62937 whole entry) above
Outline: as §1

KRAS G12D = KRAS G12D (Homo sapiens (Human), UniProt P01116+P62937, G12D); experiment: Ras-Raf (BRAF RBD) disruption / FRET / MOA assay, KRAS G12D; assay type: biochemical; details: Ras-Raf disruption/FRET/MOA assay; class symbols; read-out: KRAS G12D FRET data IC50
Chain of KRAS G12D (P01116-2 other isoform, or with tags, fused parts or gaps G12D): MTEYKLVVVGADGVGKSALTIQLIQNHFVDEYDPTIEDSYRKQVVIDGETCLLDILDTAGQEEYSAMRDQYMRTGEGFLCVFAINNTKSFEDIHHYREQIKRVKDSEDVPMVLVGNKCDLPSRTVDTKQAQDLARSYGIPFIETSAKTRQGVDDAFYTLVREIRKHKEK
Chain of KRAS G12D (P62937 whole entry): as the sequence (P62937 whole entry) above
Outline: as §1

KRAS G12V = KRAS G12V (Homo sapiens (Human), UniProt P01116+P62937, G12V); experiment: Ras-Raf (BRAF RBD) disruption / FRET / MOA assay, KRAS G12V; assay type: biochemical; details: read-out: IC50* KRAS G12V FRET data
Chain of KRAS G12V (P01116-2 other isoform, or with tags, fused parts or gaps G12V): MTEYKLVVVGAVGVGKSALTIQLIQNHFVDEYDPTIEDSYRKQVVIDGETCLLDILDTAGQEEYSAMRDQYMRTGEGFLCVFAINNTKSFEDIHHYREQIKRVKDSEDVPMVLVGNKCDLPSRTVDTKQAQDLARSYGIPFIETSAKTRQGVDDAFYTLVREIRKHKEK
Chain of KRAS G12V (P62937 whole entry): as the sequence (P62937 whole entry) above
Outline: as §1

KRAS WT = KRAS WT (Homo sapiens (Human), UniProt P01116+P62937); experiment: Ras-Raf (BRAF RBD) disruption / FRET / MOA assay, KRAS WT; assay type: biochemical; details: read-out: IC50* KRAS WT FRET data
Chain of KRAS WT (P01116-2 other isoform, or with tags, fused parts or gaps): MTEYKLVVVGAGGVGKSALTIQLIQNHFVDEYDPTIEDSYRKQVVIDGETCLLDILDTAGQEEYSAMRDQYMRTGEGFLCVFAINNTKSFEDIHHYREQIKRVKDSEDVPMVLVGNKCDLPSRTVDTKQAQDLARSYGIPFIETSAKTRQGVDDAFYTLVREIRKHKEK
Chain of KRAS WT (P62937 whole entry): as the sequence (P62937 whole entry) above
Outline: as §1

KRAS G13D = KRAS G13D (Homo sapiens (Human), UniProt P01116+P62937, G13D); experiment: Ras-Raf (BRAF RBD) disruption / FRET / MOA assay, KRAS G13D; assay type: biochemical; details: read-out: IC50* KRAS G13D FRET data
Chain of KRAS G13D (P01116-2 other isoform, or with tags, fused parts or gaps G13D): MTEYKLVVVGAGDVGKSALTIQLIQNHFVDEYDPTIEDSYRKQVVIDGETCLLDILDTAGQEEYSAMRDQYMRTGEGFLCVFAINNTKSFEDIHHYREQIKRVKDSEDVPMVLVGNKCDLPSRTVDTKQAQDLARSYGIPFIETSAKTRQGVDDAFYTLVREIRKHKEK
Chain of KRAS G13D (P62937 whole entry): as the sequence (P62937 whole entry) above
Outline: as §1

NRAS G12C = NRAS G12C (Homo sapiens (Human), UniProt P01111+P62937, G12C); experiment: Ras-Raf (BRAF RBD) disruption / FRET / MOA assay, NRAS G12C; assay type: biochemical; details: read-out: IC50* NRAS G12C FRET data
Chain of NRAS G12C (P01111 whole entry G12C): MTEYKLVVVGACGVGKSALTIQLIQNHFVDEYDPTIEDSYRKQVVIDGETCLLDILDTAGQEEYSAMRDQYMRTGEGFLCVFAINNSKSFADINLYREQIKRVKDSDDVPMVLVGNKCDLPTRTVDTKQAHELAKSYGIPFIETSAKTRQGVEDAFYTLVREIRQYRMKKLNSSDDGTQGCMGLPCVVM
Chain of NRAS G12C (P62937 whole entry): as the sequence (P62937 whole entry) above
Outline: as §1

Row | IC50 (NCI-H358 (K-Ras G12C)) [µM] | Compound | IC50 (NCI-H358 (K-Ras G12C); Homo sapiens, NCI-H358, 120 h) [µM] | IC50 (K-Ras G12C) [µM] | IC50 (K-Ras G13C) [µM] | IC50 (KRAS G12S) [µM] | IC50 (KRAS G12D) [µM] | IC50 (KRAS G12V) [µM] | IC50 (KRAS WT) [µM] | IC50 (KRAS G13D) [µM] | IC50 (NRAS G12C) [µM]
1 |  | C=CC(=O)N1CC(OCC(C(=O)N[C@H]2Cc3cc(cc(C(F)F)c3)-c3ccc4c(c3)c(c(-c3cccnc3[C@H](C)OC)n4CC)CC(C)(C)COC(=O)[C@@H]3CCCN(N3)C2=O)C(C)C)C1 (mixture of isomers) [Example A450] | > 1 | > 10 | > 10 | > 10 | > 10 | > 10 | > 10 | > 10 | > 10
2 |  | C=CC(=O)N1CC(OCC(C(=O)N[C@H]2Cc3cccc(c3)-c3ccc4c(c3)c(c(-c3cccnc3[C@H](C)OC)n4CC)CC(C)(C)COC(=O)[C@@H]3CCCN(N3)C2=O)C(C)C)C1 (mixture of isomers) [Example A484] | 0.1 to 1 | 0.1 to 1 | 1 to 10 | > 10 | > 10 | > 10 | > 10 | > 10 | 1 to 10
3 |  | C=CC(=O)N1CCC(C(=O)N(C)[C@H](C(=O)N[C@H]2Cc3cc(O)cc(c3)-c3ccc4c(c3)c(c(-c3ccccc3CCOC)n4CC)CC(C)(C)c3coc(n3)[C@@H]3CCCN(N3)C2=O)C(C)C)C1 (single isomer, unassigned) [Example A231] | > 1 | > 10 | > 10 | > 10 | > 10 | > 10 | > 10 | > 10 | > 10
4 |  | C=CC(=O)N1CC[C@H](C(=O)N(C)[C@H](C(=O)N[C@H]2Cc3cccc(c3)-c3ccc4c(c3)c(c(-c3cnccc3[C@H](C)OC)n4CC)CC(C)(C)COC(=O)[C@@H]3CCCN(N3)C2=O)C(C)C)C1 [Example A122] | > 1 | > 10 | > 10 | > 10 | > 10 | > 10 | > 10 | > 10 | > 10
5 |  | C=CC(=O)N1CC[C@H](C(=O)N(C)[C@H](C(=O)N[C@H]2Cc3cc(O)cc(c3)-c3ccc4c(c3)c(c(-c3cccnc3CNC)n4CC)CC(C)(C)COC(=O)[C@@H]3CCCN(N3)C2=O)C(C)C)C1 [Example A137] | > 1 | 0.1 to 1 | > 10 | 1 to 10 | > 10 | 1 to 10 | 1 to 10 | > 10 | 0.1 to 1
6 | > 1 | CCn1c(-c2cccnc2COC)c2c3cc(ccc31)-c1cc(O)cc(c1)C[C@H](NC(=O)[C@H](C(C)C)N(C)C(=O)[C@H]1CCC(C(=O)/C=C\CN(C)C)C1)C(=O)N1CCC[C@H](N1)C(=O)OCC(C)(C)C2 (stereo partly drawn) [Example A161] |  | 0.1 to 1 | 1 to 10 | 1 to 10 | > 10 | 1 to 10 | 1 to 10 | 1 to 10 | 0.1 to 1
7 |  | COCc1ncccc1-c1nc2ccc3cc2n1CC(C)(C)COC(=O)[C@@H]1CCCN(N1)C(=O)[C@@H](NC(=O)[C@H](C(C)C)N(C)C(=O)[C@H]1CCN(C(=O)C#CCN2CCOCC2)C1)Cc1cc(O)cc-3c1 [Example A188] | > 1 | 0.1 to 1 | > 10 | > 10 | > 10 | > 10 | > 10 | > 10 | 0.1 to 1
8 |  | C=CC(=O)N1CC[C@H](C(=O)Nc2ccccc2C(=O)N[C@H]2Cc3cc(O)cc(c3)-c3ccc4c(c3)c(c(-c3cnccc3COC)n4CC)CC(C)(C)COC(=O)[C@@H]3CCCN(N3)C2=O)C1 [Example A229] | > 1 | 0.1 to 1 | > 10 | > 10 | > 10 | > 10 | > 10 | > 10 | 1 to 10
9 |  | C=CC(=O)N1CC[C@H](C(=O)N(C)[C@H](C(=O)N(C)[C@H]2Cc3cc(O)cc(c3)-c3ccc4c(c3)c(c(-c3cccnc3COC)n4CC)CC(C)(C)COC(=O)[C@@H]3CCCN(N3)C2=O)C(C)C)C1 [Example A230] | > 1 | > 10 | > 10 | > 10 | > 10 | > 10 | > 10 | > 10 | > 10
10 |  | C=CC(=O)N1CC[C@H](C(=O)N(C)[C@H](C(=O)N[C@H]2Cc3cc(OC4O[C@H](CO)[C@@H](O)[C@H](O)[C@H]4O)cc(c3)-c3ccc4c(c3)c(c(-c3cccnc3COC)n4CC)CC(C)(C)COC(=O)[C@@H]3CCCN(N3)C2=O)C(C)C)C1 (stereo partly drawn) [Example A234] | > 1 | > 10 | > 10 | > 10 | > 10 | > 10 | > 10 | > 10 | > 10
11 |  | C=CC(=O)N1CC(O[C@H](C(=O)N[C@H]2Cc3cc(O)cc(c3)-c3ccc4c(c3)c(c(-c3cccnc3COC)n4CC)CC(C)(C)COC(=O)[C@@H]3CCCN(N3)C2=O)C(C)C)C1 [Example A235] | > 1 | 1 to 10 | 1 to 10 | > 10 | > 10 | > 10 | > 10 | > 10 | 1 to 10
12 |  | C=CC(=O)N1CC[C@H](C(=O)N(C)[C@H](C(=O)N[C@H]2CC3=NN=C(S3)c3ccc4c(c3)c(c(-c3cccnc3COC)n4CC)CC(C)(C)COC(=O)[C@@H]3CCCN(N3)C2=O)C(C)C)C1 [Example A236] | > 1 | > 10 | > 10 | > 10 | > 10 | > 10 | > 10 | > 10 | > 10
13 |  | C=CC(=O)N1CC[C@H](C(=O)N(C)[C@H](C(=O)N[C@H]2CN(C)C(=O)Cc3ccc4c(c3)c(c(-c3cccnc3COC)n4CC)CC(C)(C)COC(=O)[C@@H]3CCCN(N3)C2=O)C(C)C)C1 [Example A239] | > 1 | > 10 | > 10 | > 10 | > 10 | > 10 | > 10 | > 10 | > 10
14 |  | C=CC(=O)N1CC[C@H](C(=O)N(C)[C@H](C(=O)N[C@@H]2C(=O)N3CCC[C@H](N3)C(=O)OCC(C)(C)Cc3c(-c4cncnc4)n(CC)c4ccc(cc34)-c3cccc(c3)[C@@H]2OC)C(C)C)C1 [Example A271] | > 1 | > 10 | > 10 | > 10 | > 10 | > 10 | > 10 | > 10 | > 10
15 |  | C=CC(=O)N1CC[C@H](C(=O)N(C)[C@H](C(=O)N[C@@H]2C(=O)N3CCC[C@H](N3)C(=O)OCC(C)(C)Cc3c(-c4cncnc4)n(CC)c4ccc(cc34)-c3cccc(c3)[C@H]2OC)C(C)C)C1 [Example A273] | > 1 | > 10 | > 10 | > 10 | > 10 | > 10 | > 10 | > 10 | > 10
16 |  | CC#CC(=O)N1CC[C@H](C(=O)N(C)[C@H](C(=O)N[C@H]2Cc3nc(cs3)-c3ccc4c(c3)c(c(-c3cccnc3[C@H](C)OC)n4C(C)=O)CC(C)(C)COC(=O)[C@@H]3CCCN(N3)C2=O)C(C)C)C1 [Example A293] | > 1 | > 10 | > 10 | > 10 | > 10 | > 10 | > 10 | > 10 | > 10
17 |  | CO[C@@H](C)c1ncccc1-c1nc2ccc3cn2c1CC(C)(C)COC(=O)[C@@H]1CCCN(N1)C(=O)[C@@H](NC(=O)[C@H](C(C)C)N(C)C(=O)[C@H]1CCN(C(=O)C#CC(C)(C)N(C)C)C1)Cc1cccc-3c1 [Example A311] | > 1 | > 10 | > 10 | > 10 | > 10 | > 10 | > 10 | > 10 | > 10
18 |  | C=CC(=O)N1CC[C@H](C(=O)N(C)[C@H](C(=O)NC2C[C@@H]3CN(CCO3)c3ccc4c(c3)c(c(-c3cccnc3[C@H](C)OC)n4CC)CC(C)(C)COC(=O)[C@@H]3CCCN(N3)C2=O)C(C)C)C1 (stereo partly drawn) [Example A312] | > 1 | > 10 | > 10 | > 10 | > 10 | > 10 | > 10 | > 10 | > 10
